pEC50: −log10 of the molar value.
Test system: HCV replicon cells
Assay: Cell-based HCV replicon assay
Conditions: Hepatitis C virus, 72 h; replicon RNA level by real time PCR (Taqman), cells harvested on day 3; EC50 = concentration to achieve ΔCT=1 over baseline
Method: To measure cell-based anti-HCV activity of selected compounds of the present invention, replicon cells were seeded at 5000 cells/well in 96-well collagen I-coated Nunc plates in the presence of the test compound. Various concentrations of test compound, typically in 10 serial 2-fold dilutions, were added to the assay mixture, with the starting concentration ranging from 250 μM to 1 μM. The final concentration of DMSO was 0.5%, fetal bovine serum was 5%, in the assay media. Cells were harvested on day 3 by the addition of 1× cell lysis buffer (Ambion cat #8721). The replicon RNA level was measured using real time PCR (Taqman assay). The amplicon was located in 5B. The PCR primers were: 5B.2F, ATGGACAGGCGCCCTGA; 5B.2R, […]; the probe sequence was FAM-labeled CACGCCATGCGCTGCGG. GAPDH RNA was used as endogenous control and was amplified in the same reaction as NS5B (multiplex PCR) using primers and VIC-labeled probe recommended by the manufacturer (PE Applied Biosystem). […] Alternatively, to quantitate the absolute amount of replicon RNA, a standard curve was established by including serially diluted T7 transcripts of replicon RNA in the Taqman assay. […]

`COC(=O)N[C@@H](C(=O)N1CCC[C@H]1c1nc2ccc3cc(-c4ccc5c(ccc6nc([C@@H]7CCCN7C(=O)[C@H](NC(=O)OC)C(C)C)[nH]c65)n4)ccc3c2[nH]1)C(C)C` [Compound 1] was tested, and the pEC50 was > 9.00.

— patent US20120276047A1, “FUSED TRICYCLIC COMPOUNDS AND DERIVATIVES THEREOF USEFUL FOR THE TREATMENT OF VIRAL DISEASES” (priority 2009, published 2012)
